Measured values taken from the supplement of paper PMC11061612.

What was measured:
Assay in all cases: combination Emax (second highest fraction inhibited in the dose matrix, 72 h); higher = more inhibition; extreme values may be limits of the assay
[1] = test system: LB996-RCC (Kidney Carcinoma)
Outline: (§1)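 After 24 hours at 37°C and 5% CO2 in 1536-well plates, cells in DMEM/F12 or RPMI plus 10% FBS received two-drug dose matrices for 72 hours. Viability came from CellTiter-Glo 2.0 luminescence and was scaled as inhibition, anchored at 0 by vehicle wells and at 1 by blank wells. Combination Emax is taken as the second-highest inhibition in the matrix, and Bliss excess as the observed combination effect less EA + EB − EA·EB, with EA and EB the single-agent effects.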

[2] = test system: HSC-39 (Gastric Carcinoma)
Outline: as §1

[3] = test system: RERF-GC-1B (Gastric Carcinoma)
Outline: as §1

[4] = test system: SHP-77 (Small Cell Lung Carcinoma)
Outline: as §1

WM793B (Melanoma) = test system: WM793B (Melanoma)
Outline: as §1

A2058 (Melanoma) = test system: A2058 (Melanoma)
Outline: as §1

[5] = test system: HCT-15 (Colorectal Carcinoma)
Outline: as §1

[6] = test system: COLO-680N (Esophageal Squamous Cell Carcinoma)
Outline: as §1

[7] = test system: SU-DHL-10 (B-Cell Non-Hodgkin's Lymphoma)
Outline: as §1

[8] = test system: RERF-LC-Sq1 (Squamous Cell Lung Carcinoma)
Outline: as §1

[9] = test system: FADU (Head and Neck Carcinoma)
Outline: as §1

[10] = test system: MKN45 (Gastric Carcinoma)
Outline: as §1

WM278 (Melanoma) = test system: WM278 (Melanoma)
Outline: as §1

[11] = test system: REH (B-Lymphoblastic Leukemia)
Outline: as §1

[12] = test system: PSN1 (Pancreatic Carcinoma)
Outline: as §1

[13] = test system: NCI-H2342 (Lung Adenocarcinoma)
Outline: as §1

[14] = test system: RCM-1 (Colorectal Carcinoma)
Outline: as §1

[15] = test system: NCI-H23 (Lung Adenocarcinoma)
Outline: as §1

[16] = test system: RKN (Other Solid Carcinomas)
Outline: as §1

| SMILES | combination Emax [1] | combination Emax [2] | combination Emax [3] | combination Emax [4] | combination Emax (WM793B (Melanoma)) | combination Emax (A2058 (Melanoma)) | combination Emax [5] | combination Emax [6] | combination Emax [7] | combination Emax [8] | combination Emax [9] | combination Emax [10] | combination Emax (WM278 (Melanoma)) | combination Emax [11] | combination Emax [12] | combination Emax [13] | combination Emax [14] | combination Emax [15] | combination Emax [16] |
| --- | --- | --- | --- | --- | --- | --- | --- | --- | --- | --- | --- | --- | --- | --- | --- | --- | --- | --- | --- |
| CN(C)CCCOc1ccc(-c2ccc3ncc4c(c3c2)n(C2CCOCC2)c(=O)n4C)cn1 [AZD0156] + C=CCn1c(=O)c2cnc(Nc3ccc(N4CCN(C)CC4)cc3)nc2n1-c1cccc(C(C)(C)O)n1 [AZD1775] (first compound max 1 µM, partner max 1 µM) | 0.801 | 0.946 | 0.772 | 0.419 | 0.452 | 0.121 | 0.726 | 0.196 | 0.936 | 0.758 | 0.617 | 0.701 | 0.228 | 0.757 | 0.462 | 0.162 | 0.518 | 0.815 | 0.263 |
| CN(C)CCCOc1ccc(-c2ccc3ncc4c(c3c2)n(C2CCOCC2)c(=O)n4C)cn1 [AZD0156] + CCN(CCO)CCCOc1ccc2c(Nc3cc(CC(=O)Nc4cccc(F)c4)[nH]n3)ncnc2c1 [AZD2811] (first compound max 1 µM, 7x7, partner max 1 µM) | 0.362 | 0.935 | 0.423 | 0.237 | 0.323 | 0.0924 | 0.317 | 0.0884 | 0.835 | 0.306 | 0.228 | 0.342 | 0.0859 | 0.481 | 0.362 | 0.145 | 0.161 | 0.151 | 0.132 |
| CN(C)CCCOc1ccc(-c2ccc3ncc4c(c3c2)n(C2CCOCC2)c(=O)n4C)cn1 [AZD0156] + C[C@@H]1COCCN1C2=NC(=NC(=C2)C3(CC3)[S@](=N)(=O)C)C4=C5C=CNC5=NC=C4 [AZD6738] (first compound max 1 µM, 7x7, partner max 10 µM) | 0.581 | 1 | 0.491 | 0.665 | 0.891 | 0.225 | 0.915 | 0.267 | 0.979 | 0.843 | 0.758 | 0.791 | 0.341 | 0.625 | 0.504 | 0.166 | 0.864 | 0.786 | 0.206 |
| C=CCn1c(=O)c2cnc(Nc3ccc(N4CCN(C)CC4)cc3)nc2n1-c1cccc(C(C)(C)O)n1 [AZD1775] + C[C@@H]1COCCN1C2=NC(=NC(=C2)C3(CC3)[S@](=N)(=O)C)C4=C5C=CNC5=NC=C4 [AZD6738] (first compound max 1 µM, partner max 10 µM) | 0.84 | 1 | 0.851 | 0.827 | 0.875 | 0.413 | 0.933 | 0.529 | 1 | 0.859 | 0.875 | 0.787 | 0.44 | 0.955 | 0.764 | 0.426 | 0.852 | 0.913 | 0.35 |
| C=CCn1c(=O)c2cnc(Nc3ccc(N4CCN(C)CC4)cc3)nc2n1-c1cccc(C(C)(C)O)n1 [AZD1775] + O=C(c1cc(Cc2n[nH]c(=O)c3ccccc23)ccc1F)N1CCN(C(=O)C2CC2)CC1 [Olaparib] (first compound max 1 µM, partner max 10 µM) | 0.845 | 0.988 | 0.693 | 0.443 | 0.501 | 0.284 | 0.443 | 0.283 | 0.962 | 0.675 | 0.591 | 0.775 | 0.209 | 0.835 | 0.478 | 0.229 | 0.518 | 0.761 | 0.355 |
| CCN(CCO)CCCOc1ccc2c(Nc3cc(CC(=O)Nc4cccc(F)c4)[nH]n3)ncnc2c1 [AZD2811] + C=CCn1c(=O)c2cnc(Nc3ccc(N4CCN(C)CC4)cc3)nc2n1-c1cccc(C(C)(C)O)n1 [AZD1775] (first compound max 1 µM, partner max 1 µM) | 0.842 | 0.985 | 0.816 | 0.415 | 0.497 | 0.15 | 0.743 | 0.178 | 1 | 0.68 | 0.608 | 0.631 | 0.171 | 0.741 | 0.401 | 0.262 | 0.461 | 0.829 | 0.281 |
| CCc1c2c(nc3ccc(O)cc13)-c1cc3c(c(=O)n1C2)COC(=O)[C@]3(O)CC [SN-38] + O=C(c1cc(Cc2n[nH]c(=O)c3ccccc23)ccc1F)N1CCN(C(=O)C2CC2)CC1 [Olaparib] (first compound max 0.3 µM, 7x7, partner max 10 µM) | 0.854 | 0.887 | – | 0.567 | – | 0.22 | 0.852 | 0.386 | – | 0.672 | 0.996 | 0.847 | 0.627 | 1 | 0.753 | 0.236 | 0.809 | – | 0.651 |
